The source of these data is patent US11851428B2, “Activator of TREK (TWIK RElated K+channels) channels” (ONO PHARMACEUTICAL CO., LTD., priority 2016, dated 2023).

One assay addresses T1, human TREK-1 (Homo sapiens, UniProt O95069).
T1 construct: expressed in transfected cells
T1 sequence (O95069 1-426): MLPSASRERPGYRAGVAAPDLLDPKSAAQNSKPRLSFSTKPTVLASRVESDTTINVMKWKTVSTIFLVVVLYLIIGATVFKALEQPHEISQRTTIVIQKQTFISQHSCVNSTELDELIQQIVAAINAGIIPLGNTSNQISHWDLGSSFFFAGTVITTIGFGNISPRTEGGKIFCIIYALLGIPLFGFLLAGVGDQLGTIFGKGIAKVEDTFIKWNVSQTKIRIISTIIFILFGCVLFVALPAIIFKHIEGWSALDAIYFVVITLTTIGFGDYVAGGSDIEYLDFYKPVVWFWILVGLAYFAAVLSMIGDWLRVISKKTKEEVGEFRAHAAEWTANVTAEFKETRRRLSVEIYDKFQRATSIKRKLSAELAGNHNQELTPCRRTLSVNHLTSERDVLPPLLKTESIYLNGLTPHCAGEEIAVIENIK
Nature of the assay: thallium flux assay (TREK1 activation normalized to BL-1249). Particulars: CHO-K1, read-out: TREK1 activation RBL-1249 (%). It counts as cell-based. As for the experimental part:
The term “thallium flux assay” herein refers to a fluorescence-based assay used to monitor the activity of TREK channels. Thallium is a congener of potassium that readily fluxes through the pore of TREK channels. Thallium flux is measured using a commercially available, thallium-sensitive fluorescent dye called Thallos. The detail method is described below.
Method 1 (Thallium Flux Assay);
CHO-K1 cells stably expressing human TREK-1 or HEK293 cells stably expressing human TREK-2 are plated in 384-well plates, cultured overnight, loaded with Thallos dye the following day, treated with test compounds for 10 min, and then treated with thallium stimulus buffer to initiate thallium flux. The change in fluorescence at 25 seconds after thallium addition is normalized to baseline fluorescence (fluorescent intensity at 25 sec after Tl^+ addition)/(average of fluorescent intensity at pre-read).
For the compound `O=C(NCc1ccc(OC(F)(F)F)cc1Cl)c1ccc2ncnn2c1` [Example 9-2, N-[[2-chloro-4-(trifluoromethoxy)phenyl]methyl]-[1,2,4]triazolo[1,5-a]pyridine-6-carboxamide], the activation at 10 µM turned out to be 106%.

As for `CS(=O)(=O)Nc1ccc(C(=O)NCc2ccc(Cl)cc2Cl)cc1` [N-(2,4-dichlorobenzyl)-4-[(methylsulfonyl)amino]benzamide], the activation at 30 µM amounted to 54%.

The same assay, now with this note: concentration of Example compound 10 μM; normalized to 10 μM BL-1249; CHO-K1 cells stably expressing human TREK-1.
As for `O=C(NCc1ccc(OC(F)(F)F)cc1Cl)c1cnc2ccnn2c1` [Example 9-8, N-[[2-chloro-4-(trifluoromethoxy)phenyl]methyl]pyrazo1o[1,5-a]pyrimidine-6-carboxamide], the “TREK1 activation RBL-1249 (%)” value came out at 106%. For `Cc1nnc2cc(C(=O)NCc3ccc(OC(F)(F)F)cc3Cl)ccn12` [Example 9-11], the “TREK1 activation RBL-1249 (%)” value is recorded as 126%.

With `O=C(NCc1ccc(OC(F)(F)F)cc1Cl)c1ccn2nnnc2c1` [Example 9-17], the “TREK1 activation RBL-1249 (%)” value is recorded as 78%.

The assay is the same for the next values; noted with them: concentration of Example compound 10 μM; normalized to 10 μM BL-1249; CHO-K1 cells stably expressing human TREK-1; read-out: TREK1 activation RBL-1249 (%).
For the compound `O=C(NCc1ccc(OC(F)(F)F)cc1F)c1ccc(-c2ncc[nH]2)cc1` [Example 2-36, N-[2-fluoro-4-(trifluoromethoxy)benzyl]-4-(1H-imidazol-2-yl)benzamide], the activation at 10 µM was determined as 73%.

For the compound `Cc1cc(OC(F)(F)F)ccc1CNC(=O)c1ccc(-n2cccn2)cc1` [Example 2-38, N-[2-methyl-4-(trifluoromethoxy)benzyl]-4-(1H-pyrazol-1-yl)benzamide], the activation at 10 µM worked out at 55%. Regarding `COc1cc(OC(F)(F)F)ccc1CNC(=O)c1ccc(-n2cccn2)cc1` [Example 2-41, N-[2-methoxy-4-(trifluoromethoxy)benzyl]-4-(1H-pyrazol-1-yl)benzamide], the activation at 10 µM was 63%. `O=C(NCc1ccc(OC(F)(F)F)cc1)c1ccc(-c2ncccn2)cc1` [Example 2-47, 4-(2-pyrimidinyl)-N-[4-(trifluoromethoxy)benzyl]benzamide]: the activation at 10 µM amounted to 44%.

For `O=C(NCc1ccc(Br)cc1Cl)c1ccc(-c2ncn[nH]2)cc1` [Example 2-49, N-(4-bromo-2-chlorobenzyl)-4-(1H-1,2,4-triazol-5-yl)benzamide], the activation at 10 µM came out at 84%.

Regarding `Cc1nnc2cc(C(=O)NCc3ccc(OC(F)(F)F)c(F)c3)ccn12` [Example 3-3, N-[3-fluoro-4-(trifluoromethoxy)benzyl]-3-methyl[1,2,4]triazolo[4,3-a]pyridine-7-carboxamide], the activation at 10 µM was determined as 67%.

Consider `Cc1nc2ccc(C(=O)NCc3ccc(OC(F)(F)F)cc3C)cn2n1` [Example 3-4, 2-methyl-N-[2-methyl-4-(trifluoromethoxy)benzyl][1,2,4]triazolo[1,5-a]pyridine-6-carboxamide], for which the activation at 10 µM amounted to 89%. `Cc1cc(OC(F)(F)F)ccc1CNC(=O)c1ccn2c(C)nnc2c1` [Example 3-5, 3-methyl-N-[2-methyl-4-(trifluoromethoxy)benzyl][1,2,4]triazolo[4,3-a]pyridine-7-carboxamide]: the activation at 10 µM amounted to 89%. In the case of `O=C(NCc1ccc(OC(F)(F)F)cc1Cl)c1ccn2cnnc2c1` [Example 9, N-[[2-Chloro-4-(trifluoromethoxy)phenyl]methyl]-[1,2,4]triazolo[4,3-a]pyridine-7-carboxamide], the activation at 10 µM was 99%. With `Cn1nnc2cc(C(=O)NCc3ccc(OC(F)(F)F)cc3Cl)ccc21` [Example 9-4, N-[[2-chloro-4-(trifluoromethoxy)phenyl]methyl]-1-methylbenzotriazole-5-carboxamide], the activation at 10 µM was found to be 87%. Still for that read-out and setting: the same measure for `O=C(NCc1ccc(OC(F)(F)F)cc1Cl)c1ccc2[nH]nnc2c1` [Example 9-7, N-[[2-chloro-4-(trifluoromethoxy)phenyl]methyl]-1H-benzotriazole-5-carboxamide]: 125%. Still for that read-out and setting: the same measure for `Nc1c(C(=O)NCc2ccc(OC(F)(F)F)cc2Cl)cnc2ccnn12` [Example 9-14, 7-amino-N-[2-chloro-4-(trifluoromethoxy)benzyl]pyrazolo[1,5-a]pyrimidine-6-carboxamide]: 79%. With `O=C(NCc1ccc(OC(F)(F)F)cc1Cl)c1ccc(-c2ncc[nH]2)cc1` [Example 9-15, N-[2-chloro-4-(trifluoromethoxy)benzyl]-4-(1H-imidazol-2-yl)benzamide], the activation at 10 µM is 59%. As to `O=C(NCc1ccc(OC(F)(F)F)cc1Cl)c1ccc2nnnn2c1` [Example 9-16, N-[2-chloro-4-(trifluoromethoxy)benzyl]tetrazolo[1,5-a]pyridine-6-carboxamide], the activation at 10 µM came out at 95%. Take `Cc1cc2ncc(C(=O)NCc3ccc(OC(F)(F)F)cc3Cl)cn2n1` [Example 9-19, N-[2-chloro-4-(trifluoromethoxy)benzyl]-2-methylpyrazolo[1,5-a]pyrimidine-6-carboxamide]: the activation at 10 µM stood at 68%.

The same assay, now with this note: concentration of Example compound 30 μM; normalized to 10 μM BL-1249; CHO-K1 cells stably expressing human TREK-1; read-out: TREK1 activation RBL-1249 (%).
With `O=C(NCc1ccc(C(F)(F)F)cn1)c1ccc(-n2cccn2)cc1` [Example 2-37, 4-(1H-pyrazol-1-yl)-N-{[5-(trifluoromethyl)-2-pyridinyl]methyl}benzamide], the activation at 30 µM was found to be 24%. Regarding `Cc1cc(C(=O)NCc2ccc(Br)cc2Cl)cn2ncnc12` [Example 3-2, N-(4-bromo-2-chlorobenzyl)-8-methyl[1,2,4]triazolo[1,5-a]pyridine-6-carboxamide], the activation at 30 µM is 41%. As to `CS(=O)(=O)N1CCOc2cc(C(=O)NCc3ccc(Br)cc3Cl)ccc21` [Example 3-10, N-(4-bromo-2-chlorobenzyl)-4-(methylsulfonyl)-3,4-dihydro-2H-1,4-benzoxazine-7-carboxamide], the activation at 30 µM turned out to be 34%. On to `COc1cc(OC(F)(F)F)ccc1CNC(=O)c1ccc(-c2noc(=O)[nH]2)cc1` [Example 4, N-[2-Methoxy-4-(trifluoromethoxy)benzyl]-4-(5-oxo-4,5-dihydro-1,2,4-oxadiazol-3-yl)benzamide], for which the activation at 30 µM came to 77%. On the same count and under the same terms, with `COc1cc(OC(F)(F)F)ccc1CNC(=O)c1ccc(-c2nnn[nH]2)cc1` [Example 5, N-[2-Methoxy-4-(trifluoromethoxy)benzyl]-4-(1H-tetrazol-5-yl)benzamide] the figure was 79%; with `O=C(Cc1ccc(OC(F)(F)F)cc1F)Nc1ccc2ncnn2c1` [Example 6, 2-[2-Fluoro-4-(trifluoromethoxy)phenyl]-N-([1,2,4]triazolo[1,5-a]pyridin-6-yl)acetamide], 19%; with `O=C(NCc1ccc(Cl)cc1Cl)c1ccc(CN2CCOCC2)cc1` [Example 7, N-(2,4-Dichlorobenzyl)-4-(4-morpholinomethyl)benzamide], 38%. Regarding `COc1cc(OC(F)(F)F)ccc1CNC(=O)c1ccc(NS(C)(=O)=O)nc1` [Example 8-2, N-[2-methoxy-4-(trifluoromethoxy)benzyl]-6-[(methylsulfonyl)amino]nicotinamide], the activation at 30 µM turned out to be 48%.
